“Also recorded” adds a separate entry of the source. Where only a bound is given, the exact number is not on record here.

This is an account of results in US10807985B2 (Blueprint Medicines Corporation, priority 2013, dated 2020).

The target of one data set is D816V KIT (Homo sapiens (Human), UniProt P10721, D816V). Briefly: KIT D816V assay at Km (Caliper electrophoretic mobility shift). Particulars: biochemical, 15 uM ATP (Km), 90 minutes at 25 C; read-out: INH KIT D816V.
The target of a further data set is PDGFRA D842V (Homo sapiens (Human), UniProt P16234, D842V). The experiment in a line: PDGFRA D842V assay at Km (Caliper electrophoretic mobility shift). The settings on record: biochemical, 15 uM ATP (Km), 90 minutes at 25 C; read-out: INH PDFGRA D842V.
PDGFRA D842V, sequence (P16234 24-1089 D842V): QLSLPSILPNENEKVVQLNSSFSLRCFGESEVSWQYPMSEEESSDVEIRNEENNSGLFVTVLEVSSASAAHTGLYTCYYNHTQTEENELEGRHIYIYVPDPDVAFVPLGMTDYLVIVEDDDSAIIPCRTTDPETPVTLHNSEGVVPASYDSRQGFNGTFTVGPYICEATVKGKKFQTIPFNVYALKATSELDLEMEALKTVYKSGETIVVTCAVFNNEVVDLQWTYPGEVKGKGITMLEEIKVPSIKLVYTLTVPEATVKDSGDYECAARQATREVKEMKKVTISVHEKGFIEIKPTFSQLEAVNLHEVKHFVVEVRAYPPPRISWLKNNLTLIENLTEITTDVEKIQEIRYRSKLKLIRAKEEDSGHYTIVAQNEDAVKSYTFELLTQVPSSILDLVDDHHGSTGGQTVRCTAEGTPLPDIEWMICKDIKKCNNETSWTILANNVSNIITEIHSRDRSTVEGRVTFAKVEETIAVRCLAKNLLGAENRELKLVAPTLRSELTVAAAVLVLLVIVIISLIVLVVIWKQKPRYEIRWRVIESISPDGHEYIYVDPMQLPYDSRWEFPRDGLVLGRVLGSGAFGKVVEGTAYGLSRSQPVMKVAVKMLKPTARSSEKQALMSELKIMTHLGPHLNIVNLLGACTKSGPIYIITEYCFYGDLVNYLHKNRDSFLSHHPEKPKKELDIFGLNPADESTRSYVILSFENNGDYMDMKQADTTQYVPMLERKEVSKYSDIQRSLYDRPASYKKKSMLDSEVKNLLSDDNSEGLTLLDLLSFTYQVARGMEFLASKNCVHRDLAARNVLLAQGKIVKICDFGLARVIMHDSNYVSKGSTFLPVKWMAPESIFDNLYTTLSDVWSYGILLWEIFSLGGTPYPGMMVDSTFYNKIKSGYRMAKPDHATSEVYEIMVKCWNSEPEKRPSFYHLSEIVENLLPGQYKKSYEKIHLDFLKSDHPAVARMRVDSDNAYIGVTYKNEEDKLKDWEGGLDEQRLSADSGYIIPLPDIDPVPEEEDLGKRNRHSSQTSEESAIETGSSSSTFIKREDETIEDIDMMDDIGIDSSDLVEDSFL
For data set [1], the target named is KIT D816V kinase activity (KIT autophosphorylation at tyrosine 719) in HMC1.2 cells (Homo sapiens (Human), UniProt P10721, D816V/V560G). The experiment in a line: HMC1.2 autophosphorylation assay (phospho-Y719 c-KIT AlphaLISA). It is filed as cell-based. The settings on record: HMC1.2 mast cell leukemia cell line (KIT V560G, D816V), 90 minutes compound; read-out: INH-KIT-PHOS-HMC1.2.
KIT D816V kinase activity (KIT autophosphorylation at tyrosine 719) in HMC1.2 cells, sequence (P10721 26-976 V560G/D816V): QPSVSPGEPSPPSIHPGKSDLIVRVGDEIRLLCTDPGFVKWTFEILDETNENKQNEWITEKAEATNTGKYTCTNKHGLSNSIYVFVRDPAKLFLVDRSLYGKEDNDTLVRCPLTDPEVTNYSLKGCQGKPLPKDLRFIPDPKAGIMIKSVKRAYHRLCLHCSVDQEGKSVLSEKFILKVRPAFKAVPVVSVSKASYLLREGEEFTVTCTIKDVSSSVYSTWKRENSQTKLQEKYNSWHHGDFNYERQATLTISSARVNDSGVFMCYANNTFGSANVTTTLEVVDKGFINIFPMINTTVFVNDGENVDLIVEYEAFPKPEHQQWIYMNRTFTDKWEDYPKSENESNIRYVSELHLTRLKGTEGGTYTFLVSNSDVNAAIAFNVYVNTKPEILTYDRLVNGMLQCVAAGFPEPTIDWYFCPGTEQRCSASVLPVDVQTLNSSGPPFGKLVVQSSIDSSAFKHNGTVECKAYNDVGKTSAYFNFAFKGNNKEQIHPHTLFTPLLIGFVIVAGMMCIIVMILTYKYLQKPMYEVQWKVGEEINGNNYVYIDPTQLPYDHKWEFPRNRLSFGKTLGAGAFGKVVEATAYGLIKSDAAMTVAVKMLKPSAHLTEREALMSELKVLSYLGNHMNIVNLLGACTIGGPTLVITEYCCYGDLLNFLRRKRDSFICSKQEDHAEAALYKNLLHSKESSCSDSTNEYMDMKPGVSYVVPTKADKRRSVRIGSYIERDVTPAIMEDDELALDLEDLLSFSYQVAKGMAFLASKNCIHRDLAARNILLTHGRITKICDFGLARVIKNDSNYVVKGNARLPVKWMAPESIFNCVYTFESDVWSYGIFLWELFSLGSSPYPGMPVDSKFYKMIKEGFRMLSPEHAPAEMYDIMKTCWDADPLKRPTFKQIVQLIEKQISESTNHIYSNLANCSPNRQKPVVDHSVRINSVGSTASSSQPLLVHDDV

For data set [2] the following is noted: mouse, in vivo.
The subject of the next data set is P815 tumor cells. Briefly: P815 mastocytoma xenograft model, tumor growth. It is filed as in vivo, mouse. Particulars: P815 xenograft in female BALB/c nude mice; 3, 10, 30, 100 mg/kg p.o. QD × 10. The procedure: Compound 46 and Dasatinib were evaluated in a P815 mastocytoma xenograft model. P815 tumor cells (ATCC, Manassas, Va., cat # ATCC® TIB-64) were maintained in vitro as a suspension and monolayer culture in RPMI1640 medium supplemented with 10% fetal calf serum at 37° C. in an atmosphere of 5% CO2 in air. The tumor cells were sub-cultured twice weekly by trypsin-EDTA treatment. The cells growing in an exponential growth phase were harvested and counted for tumor inoculation.
Tumor sizes were measured every other day in two dimensions using a caliper, and the volume was expressed in mm^3 using the formula: V=0.5 a×b^2 where a and b were the long and short diameters of the tumor, respectively. […] T-C was calculated with T as the median time (in days) required for the treatment group tumors to reach a predetermined size (e.g., 1000 mm^3), and C as the median time (in days) for the control group tumors to reach the same size. […]
TGI was calculated for each group using the formula: TGI (%)=[1−(Ti−T0)/(Vi−V0)]×100; Ti is the average tumor volume of a treatment group on a given day, T0 is the average tumor volume of the treatment group on the day of treatment start, Vi is the average tumor volume of the vehicle control group on the same day with Ti, and V0 is the average tumor volume of the vehicle group on the day of treatment start. Tumor weight was measured at the endpoint. […]

Data set [3] in a line: Body weight changes in the tumor bearing mice (P815 xenograft).

D816V KIT, sequence (P10721 26-976 D816V): as the sequence (P10721 26-976 V560G/D816V) above, with G535V counted along it

As for `Cn1cc(-c2cc3c(N4CCN(c5ncc([C@](C)(O)c6ccc(F)cc6)cn5)CC4)ncnn3c2)cn1` [Compound 45], the results for the IC50 (at D816V KIT; at PDGFRA D842V; in data set [1]) were less than 1 nM, less than 1 nM and less than 50 nM, respectively.

On to `Cn1cc(-c2cc3c(N4CCN(c5ncc([C@@](C)(O)c6ccc(F)cc6)cn5)CC4)ncnn3c2)cn1` [Compound 46], for which the tolerability result in data set [2] is reported as “well tolerated”. Besides, the tumor growth inhibition entry in the data set with P815 tumor cells was “effective in inhibiting tumor growth; also recorded: observable antitumor activity”. The IC50 was less than 1 nM at D816V KIT, less than 1 nM on PDGFRA D842V and less than 50 nM in data set [1]. In addition, the body weight change entry in data set [3] (Compound 46 3-100 mg/kg p.o. QD × 10, even at the higher doses) is listed as “less than 5%”.

Regarding `C[C@](O)(c1cnc(N2CCN(c3ncnn4cc(-c5cn[nH]c5)cc34)CC2)nc1)c1ccc(F)cc1F` [Compound 57], the IC50 on D816V KIT was less than 1 nM; at PDGFRA D842V, 1.01 to 10 nM; in data set [1], less than 50 nM.

In the case of `C[C@](N)(c1ccc(F)cc1)c1cnc(N2CCN(c3ncnn4cc(-c5ccc(F)cc5)cc34)CC2)nc1` [Compound 62], the figures for the IC50 (on D816V KIT; on PDGFRA D842V; in data set [1]) were 1.01 to 10 nM, 1.01 to 10 nM and 50 to 100 nM, respectively.

With `C[C@](O)(c1ccc(F)cc1)c1cnc(N2CCN(c3ncnn4cc(-c5ccc(F)cc5)cc34)CC2)nc1` [Compound 65], the IC50 was in the range of 1.01 to 10 nM on D816V KIT, 1.01 to 10 nM at PDGFRA D842V and 100 to 1000 nM in data set [1].

For the compound `CO[C@](C)(c1ccc(F)cc1)c1cnc(N2CCN(c3ncnn4cc(-c5cnn(C)c5)cc34)CC2)nc1` [Compound 68], the values for the IC50 (at D816V KIT; on PDGFRA D842V; in data set [1]) were 1.01 to 10 nM, 1.01 to 10 nM and less than 50 nM, respectively.

With `C[C@@H]1CN(c2ncnn3cc(-c4cnn(C)c4)cc23)CCN1c1ncc([C@](C)(O)c2ccc(F)cc2)cn1` [Compound 76], the IC50 on D816V KIT lay within 1.01 to 10 nM; at PDGFRA D842V, 1.01 to 10 nM; in data set [1] it was 50 to 100 nM.

Turning to `C[C@@H]1CN(c2ncnn3cc(-c4cnn(C)c4)cc23)CCN1c1ncc([C@@](C)(O)c2ccc(F)cc2)cn1` [Compound 77], the IC50 on D816V KIT is 1.01 to 10 nM; at PDGFRA D842V, less than 1 nM; in data set [1], less than 50 nM.

With `Cn1cc(-c2cc3c(N4CCN(c5ncc([C@@](C)(CO)c6ccc(F)cc6)cn5)CC4)ncnn3c2)cn1` [Compound 78], the IC50 is less than 1 nM at D816V KIT, less than 1 nM at PDGFRA D842V and less than 50 nM in data set [1].

`Cn1cc(-c2cc3c(N4CCN(c5ncc([C@](C)(CO)c6ccc(F)cc6)cn5)CC4)ncnn3c2)cn1` [Compound 79]: the IC50 is 1.01 to 10 nM on D816V KIT, less than 1 nM at PDGFRA D842V and less than 50 nM in data set [1].

For the compound `Cn1cc(-c2cc3c(N4CCN(c5ncc([C@](C)(O)c6ccc(Cl)cc6)cn5)CC4)ncnn3c2)cn1` [Compound 84], the IC50 at D816V KIT was 1.01 to 10 nM; at PDGFRA D842V, 1.01 to 10 nM; in data set [1] it was less than 50 nM.

Consider `Cn1cc(-c2cc3c(N4CCN(c5ncc([C@](C)(N)c6ccc(F)cc6F)cn5)CC4)ncnn3c2)cn1` [Compound 86], for which the IC50 on D816V KIT is less than 1 nM; at PDGFRA D842V, less than 1 nM; in data set [1] it was less than 50 nM.

For the compound `Cc1ncc(-c2cc3c(N4CCN(c5ncc([C@](C)(O)c6ccc(F)cc6)cn5)CC4)ncnn3c2)s1` [Compound 87], the IC50 on D816V KIT lay in the range of 1.01 to 10 nM; on PDGFRA D842V, 1.01 to 10 nM; in data set [1], 100 to 1000 nM.

Consider `Cn1cc(-c2cc3c(N4CCN(c5ncc([C@@](C)(O)c6ccc(F)cc6F)cn5)CC4)ncnn3c2)cn1` [Compound 94], for which the IC50 is less than 1 nM on D816V KIT, less than 1 nM at PDGFRA D842V and less than 50 nM in data set [1].

With `Cn1cc(-c2cc3c(N4CCN(c5ncc([C@](O)(CF)c6ccc(F)cc6)cn5)CC4)ncnn3c2)cn1` [Compound 96], the IC50 was less than 1 nM at D816V KIT, less than 1 nM on PDGFRA D842V and less than 50 nM in data set [1].

In the case of `Cn1cc(-c2cc3c(N4CCN(c5ncc(Sc6ccccc6F)cn5)[C@H](CO)C4)ncnn3c2)cn1` [Compound 97], the IC50 at D816V KIT was 1.01 to 10 nM; at PDGFRA D842V, 1.01 to 10 nM; in data set [1] it was less than 50 nM.

For the compound `CN(C)C(=O)c1ccc(-c2cc3c(N4CCN(c5ncc(Cc6ccccc6)cn5)CC4)ncnn3c2)cc1` [Compound 98], the IC50 is less than 1 nM on D816V KIT, less than 1 nM at PDGFRA D842V and 100 to 1000 nM in data set [1].

For `O[C@@](c1ccc(F)cc1)(c1cnc(N2CCN(c3ncnn4cc(-c5cn[nH]c5)cc34)CC2)nc1)C(F)F` [Compound 100], the IC50 at D816V KIT was less than 1 nM; at PDGFRA D842V, less than 1 nM; in data set [1], less than 50 nM.

For `COc1ccc(-c2cc3c(N4CCN(c5ncc([C@@](C)(O)c6ccc(F)cc6)cn5)CC4)ncnn3c2)cc1` [Compound 102], the IC50 at D816V KIT is 1.01 to 10 nM; on PDGFRA D842V it was 1.01 to 10 nM; in data set [1], 50 to 100 nM.

For the compound `Cn1cc(-c2cc3c(N4CCN(c5ncc([C@@](N)(c6ccc(F)cc6)C(F)F)cn5)CC4)ncnn3c2)cn1` [Compound 111], the IC50 on D816V KIT was less than 1 nM; on PDGFRA D842V it was less than 1 nM; in data set [1], less than 50 nM.

As for `Cn1cc(-c2cc3c(N4CCN(c5ncc([C@](C)(O)c6c(F)cc(F)cc6F)cn5)CC4)ncnn3c2)cn1` [Compound 115], the IC50 at D816V KIT is 1.01 to 10 nM; at PDGFRA D842V, less than 1 nM; in data set [1] it was less than 50 nM.

Consider `Cn1cc(-c2cc3c(N4CCN(c5ncc([C@@](C)(O)c6c(F)cc(F)cc6F)cn5)CC4)ncnn3c2)cn1` [Compound 116], for which the values for the IC50 (at D816V KIT; at PDGFRA D842V; in data set [1]) were less than 1 nM, less than 1 nM and less than 50 nM, respectively.

Take `Cn1cc(-c2cc3c(N4CCN(c5ncc([C@@](O)(c6ccc(F)cc6)C(F)F)cn5)CC4)ncnn3c2)cn1` [Compound 117]: the IC50 at D816V KIT is less than 1 nM; on PDGFRA D842V, 1.01 to 10 nM; in data set [1], less than 50 nM.

`Cn1cc(-c2cc3c(N4CCN(c5ncc([C@@](N)(c6ccc(F)cc6)C(F)(F)F)cn5)CC4)ncnn3c2)cn1` [Compound 122]: the IC50 on D816V KIT is 1.01 to 10 nM; at PDGFRA D842V, 1.01 to 10 nM; in data set [1], less than 50 nM.

For `Fc1ccccc1Sc1cnc(N2CCN(c3ncnn4cc(-c5cnn(C[C@@H]6CNCCO6)c5)cc34)CC2)nc1` [Compound 123, (S)-2-((4-(4-(4-(5-(2-fluorophenylthio)pyrimidin-2-yl)piperazin-1-yl)pyrrolo[1,2-f][1,2,4]triazin-6-yl)-1H-pyrazol-1-yl)methyl)morpholine], the IC50 lay in the range of 1.01 to 10 nM at D816V KIT, 1.01 to 10 nM on PDGFRA D842V and 50 to 100 nM in data set [1].

For the compound `Cc1nc(Nc2ncc(C(=O)Nc3c(C)cccc3Cl)s2)cc(N2CCN(CCO)CC2)n1` [Dasatinib, reference compound], in data set [3] (Dasatinib 25 mg/kg p.o. BID × 10), the body weight loss entry was “more than 5%”.
